Assay [1] relates to Mycobacterium tuberculosis. Briefly: microbe, parasite or virus in culture. To be noted: 120 h.
In assay [2] the test system is Mycobacterium tuberculosis. Format: functional. To be noted: H37Rv, 120 h.

In brackets after ≈: the same amount, converted by molar mass.

In assay [1], `CC1COC2(CCN(c3nc(=O)c4cc(C(F)(F)F)cc([N+](=O)[O-])c4s3)CC2)O1` (centres undefined) yielded an MIC of 0.01 µM (≈ 0.00431 µg/mL).

Compound `CO[C@H]1/C=C/O[C@@]2(C)Oc3c(C)c(O)c4c(O)c(c(/C=N/N5CCN(C)CC5)c(O)c4c3C2=O)NC(=O)/C(C)=C\C=C\[C@H](C)[C@H](O)[C@@H](C)[C@@H](O)[C@@H](C)[C@H](OC(C)=O)[C@@H]1C` [RIFAMPIN] gave an MIC in assay [1] of 12.5 µM (≈ 10.3 µg/mL).

`Cc1cc(-n2cccn2)ccc1S(=O)(=O)NC1CCN(Cc2ccncc2)CC1`: the MIC in assay [2] came to 0.8 µM (≈ 0.329 µg/mL).

The compound `NNC(=O)c1ccncc1` [ISONIAZID] yielded an MIC in assay [1] of 0.5 µM (≈ 0.0686 µg/mL).

For `Cc1cccc2c(CN3CCC(NS(C)(=O)=O)C3)c(-c3ccccc3)[nH]c12` (racemic), in assay [2], the MIC is 1.6 µM (≈ 0.614 µg/mL).

As to `COCCN(C1CCN(Cc2c(-c3ccccc3)[nH]c3c(C)cccc23)C1)S(C)(=O)=O` (centres undefined), the MIC in assay [2] is 0.8 µM (≈ 0.353 µg/mL); in assay [1] it was 1.6 µM (≈ 0.707 µg/mL).

As for `O=S(=O)(NC1CCN(Cc2ccncc2)CC1)c1ccc(-n2cccn2)cc1`, the MIC in assay [2] worked out at 3.3 µM (≈ 1.31 µg/mL); in assay [1] it was 1.6 µM (≈ 0.636 µg/mL).

These data come from ChEMBL document CHEMBL3351608, “2-Phenylindole and Arylsulphonamide: Novel Scaffolds Bactericidal against Mycobacterium tuberculosis” (ACS Med Chem Lett, 2014).
